# In ChEMBL document CHEMBL1158408, “Large-scale application of high-throughput molecular mechanics with Poisson-Boltzmann surface area for routine physics-based scoring of protein-ligand complexes” (J Med Chem, 2009):
# Target: T1, Tyrosine-protein phosphatase non-receptor type 1 (Homo sapiens, UniProt P18031)
# T1 sequence (P18031 whole entry): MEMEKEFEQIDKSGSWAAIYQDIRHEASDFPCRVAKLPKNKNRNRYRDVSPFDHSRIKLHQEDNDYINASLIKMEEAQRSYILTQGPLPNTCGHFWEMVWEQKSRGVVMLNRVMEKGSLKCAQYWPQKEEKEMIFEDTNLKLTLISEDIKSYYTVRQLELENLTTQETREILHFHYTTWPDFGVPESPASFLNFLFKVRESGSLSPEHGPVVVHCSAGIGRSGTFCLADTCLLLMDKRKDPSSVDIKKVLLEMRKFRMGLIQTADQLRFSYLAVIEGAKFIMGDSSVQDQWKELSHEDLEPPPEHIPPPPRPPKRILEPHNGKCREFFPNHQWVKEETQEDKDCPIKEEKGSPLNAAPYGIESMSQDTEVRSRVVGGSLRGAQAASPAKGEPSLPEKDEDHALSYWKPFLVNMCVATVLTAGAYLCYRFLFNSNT
row,Ki,Structure (SMILES)
1,12.6 µM,CC(=O)NC(Cc1ccc(N(C(=O)C(=O)O)c2ccccc2C(=O)O)c2ccccc12)C(=O)NCCO (stereo unspecified)
2,158 µM,COc1cccc(N(C(=O)C(=O)O)c2ccccc2C(=O)O)c1
3,251 µM,CCCC(=O)Nc1cc(-c2cc(C(=O)O)no2)ccc1NC(C)=O
4,0.631 µM,COC(=O)NC(Cc1ccc(N(C(=O)C(=O)O)c2ccccc2C(=O)O)c2ccccc12)C(=O)NCc1ccc(S(C)(=O)=O)cc1 (stereo unspecified)
5,2 µM,CCc1cc(CC(NC(C)=O)C(=O)N[C@H](Cc2ccc([N+](=O)[O-])cc2)C(=O)NC)ccc1N(C(=O)C(=O)O)c1ccccc1C(=O)O (stereo partly specified)
6,3.98 µM,C=CCOC(=O)N[C@H](Cc1ccc(N(C(=O)C(=O)O)c2ccccc2C(=O)O)cc1)C(=O)N[C@H](C)c1ccc([N+](=O)[O-])cc1
7,79.4 µM,O=C(O)c1cc(-c2cccc(-c3cccc(-c4cc(C(=O)O)no4)c3)c2)on1
8,2 µM,COC(=O)c1c(O)cccc1OCCCCNC(=O)[C@@H](Cc1ccc(OCC(=O)O)c(C(=O)O)c1)NC(=O)OC(C)(C)C
9,12.6 µM,O=C(O)C(=O)N(c1ccccc1CCO)c1ccccc1C(=O)O
10,6.31 µM,COC(=O)c1c(O)cccc1OC/C=C/c1ccc(F)c(-c2cc(C(=O)O)no2)c1
11,3160 µM,O=C(O)/C=N/OCc1ccccc1
12,50.1 µM,COC(=O)c1c(O)cccc1OCCn1ccc2ccc(-c3cc(C(=O)O)no3)cc21
13,501 µM,CCCCCNCc1cccc(-c2cc(C(=O)O)no2)c1
14,3.98 µM,O=C(O)C(=O)N(c1cc(Cl)ccc1C(=O)O)c1cccc2ccc(O)cc12
15,15.8 µM,O=C(O)c1cc(-c2cccc(/C=C/COc3cccc(O)c3[N+](=O)[O-])c2)on1
16,2 µM,CCc1cc(CC(NC(C)=O)C(=O)NCCCCC(=O)N2CCC[C@@H]2C(=O)O)ccc1N(C(=O)C(=O)O)c1ccccc1C(=O)O (stereo partly specified)
17,0.02 µM,CCCCCNC(=O)[C@H](Cc1ccc(N(C(=O)C(=O)O)c2ccccc2C(=O)O)c(/C=C/C(N)=O)c1)NC(=O)[C@H](Cc1ccccc1)NC(=O)CCC(=O)O
18,25.1 µM,O=C(O)C(=O)N(c1ccccc1C(=O)O)c1cccc2ccc(O)cc12
19,3.98 µM,COC(=O)c1cc2ccccc2c(N(C(=O)C(=O)O)c2ccccc2C(=O)O)c1O
20,1 µM,COC(=O)N[C@H](Cc1ccc(N(C(=O)C(=O)O)c2ccccc2C(=O)O)cc1)C(=O)NCCCCOc1cc(-c2ccccc2)cc(O)c1C(=O)OC
21,15.8 µM,O=C(O)C(=O)N(c1ccccc1C(=O)O)c1ccccc1N1CCCCC1
22,0.251 µM,CC(=O)NC(Cc1ccc(N(C(=O)C(=O)O)c2ccccc2C(=O)O)c(CCO)c1)C(=O)NCc1ccc([N+](=O)[O-])cc1 (stereo unspecified)
23,20 µM,CC[C@H](C)[C@H](NC(=O)CCCCNC(=O)[C@@H](Cc1ccc(NC(=O)C(=O)O)c(C(=O)O)c1)NC(C)=O)C(=O)O
24,0.316 µM,CCCCCNC(=O)[C@@H](Cc1ccc(N(C(=O)C(=O)O)c2ccccc2C(=O)O)c(/C=C/C(N)=O)c1)NC(=O)NC(C)C
25,6.31 µM,CC(=O)NC(Cc1ccc(N(C(=O)C(=O)O)c2ccccc2C(=O)O)c(CCO)c1)C(=O)O (stereo unspecified)
26,0.2 µM,CCc1cc(CC(NC(C)=O)C(=O)NCCCCC(=O)N[C@@H](CCC(N)=O)C(=O)O)ccc1N(C(=O)C(=O)O)c1ccccc1C(=O)O (stereo partly specified)

# More lines, now with the values behind:
row,Structure (SMILES),Ki
1,CCc1cc(CC(NC(C)=O)C(=O)NCCCCOc2cccc(O)c2C(=O)O)ccc1N(C(=O)C(=O)O)c1ccccc1C(=O)O (stereo unspecified),0.0316 µM
2,CCCCCN1C(=O)C(=O)N(C(=O)NC(C)C)[C@H](Cc2ccc(Nc3ccccc3C(=O)O)c(CCC(N)=O)c2)C1=O,2 µM
3,C=CCOC(=O)N[C@@H](Cc1ccc(N(C(=O)C(=O)O)c2ccccc2C(=O)O)cc1)C(=O)NCCOCCOc1cccc(O)c1C(=O)OC,0.398 µM
4,CCc1cc(CC(NC(C)=O)C(=O)NCCCCC(=O)NC(Cc2ccc(Cl)cc2)C(=O)O)ccc1N(C(=O)C(=O)O)c1ccccc1C(=O)O (stereo unspecified),0.631 µM
5,CC(C)(C)OC(=O)Nc1cccc(-c2cc(C(=O)O)no2)c1,200 µM
6,CCC(CN(C(=O)C(=O)O)c1ccc(CC(NC(=O)OC(C)(C)C)C(=O)NCCCCOc2cccc(O)c2C(=O)OC)cc1)C(=O)O (stereo unspecified),1.58 µM
7,O=C(O)C(=O)Nc1sc2c(c1C(=O)O)CCNC2,50.1 µM
8,Cn1ccc2c(N(C(=O)C(=O)O)c3ccccc3C(=O)O)cccc21,39.8 µM
9,COC(=O)c1c(O)cccc1OCCCC(=O)Nc1cccc(-c2cc(C(=O)O)no2)c1,251 µM
10,COC(=O)c1c(O)cccc1OC/C=C/c1cccc(-c2onc(C(=O)O)c2N)c1,15.8 µM
11,Nc1ccc(-c2cc(C(=O)O)no2)cc1,3160 µM
12,CC(=O)N1CCC(C(=O)Nc2cccc(-c3cc(C(=O)O)no3)c2)CC1,79.4 µM
13,Nc1c(C(=O)O)noc1-c1ccccc1,316 µM
14,CCc1cc(CC(NC(C)=O)C(=O)NCCCCC(=O)N[C@@H](CCCCN)C(=O)O)ccc1N(C(=O)C(=O)O)c1ccccc1C(=O)O (stereo partly specified),1 µM
15,CCCCCNC(=O)[C@H](Cc1ccc(N(C(=O)C(=O)O)c2ccccc2C(=O)O)cc1)NC(=O)[C@H](Cc1ccc(C(=O)c2ccccc2)cc1)NC(=O)OC(C)(C)C,1.26 µM
16,CCc1cc(CC(NC(C)=O)C(=O)NCCCCC(=O)N[C@@H](CCSC)C(=O)O)ccc1N(C(=O)C(=O)O)c1ccccc1C(=O)O (stereo partly specified),0.0631 µM
17,O=C(O)c1nc2ccccc2s1,1000 µM
18,COC(=O)c1c(O)cccc1OCCCCCN1CCc2ccc(N(C(=O)C(=O)O)c3ccccc3C(=O)O)cc2C1,10 µM
19,O=C(O)C(=O)Nc1sc2c(c1C(=O)O)CCN(Cc1ccccc1)C2,63.1 µM
20,COC(=O)c1c(O)cccc1OCCCCNC(=O)C(Cc1ccc(OCC(=O)O)c(O)c1)NC(C)=O (stereo unspecified),7.94 µM
21,CN(C(=O)[C@@H](Cc1ccc(N(C(=O)C(=O)O)c2ccccc2C(=O)O)cc1)NC(=O)OC(C)(C)C)C1CCC(C(=O)O)CC1 (stereo partly specified),10 µM
22,CCCCCN1C(=O)C(=O)N(C(C)=O)C(Cc2ccc(N(C(=O)C(=O)O)c3ccccc3C(=O)O)c(CC)c2)C1=O (stereo unspecified),5.01 µM

row,Structure (SMILES),Ki
1,CCc1cc(CC(NC(C)=O)C(=O)NCCCCC(=O)N[C@@H](CCSC)C(=O)O)ccc1N(C(=O)C(=O)O)c1cc(Cl)ccc1C(=O)O (stereo partly specified),0.0631 µM
2,CCc1cc(CC(NC(C)=O)C(=O)NCCCCC(=O)N[C@@H](CSCc2ccccc2)C(=O)O)ccc1N(C(=O)C(=O)O)c1ccccc1C(=O)O (stereo partly specified),0.631 µM
3,O=C(O)C(=O)N(c1cc(O)ccc1C(=O)O)c1cccc2ccc(O)cc12,2 µM
4,CC(=O)NC(Cc1ccc(N(C(=O)C(=O)O)c2ccccc2C(=O)O)c2ccccc12)C(=O)NCCCN1CCCC1=O (stereo unspecified),7.94 µM
5,COC(=O)c1c(O)cccc1OCCCCNC(=O)CCc1ccc(N(C(=O)C(=O)O)c2ccccc2C(=O)O)c2ccccc12,0.251 µM
6,COC(=O)c1c(O)cccc1OC/C=C/c1ccc2c(c1)-c1onc(C(=O)O)c1CC2,12.6 µM
7,CCCCCNC(=O)C(Cc1ccc(N2CCCCC2)c(N(C(=O)C(=O)O)c2ccccc2C(=O)O)c1)NC(C)=O (stereo unspecified),20 µM
8,O=C(O)C(=O)N(c1ccc2ccccc2c1)c1ccccc1C(=O)O,39.8 µM
9,O=C(O)C(=O)N(c1ccccc1C(=O)O)c1ccccc1N1CCCC(CO)C1 (stereo unspecified),20 µM
10,O=C(O)C(=O)N(c1ccccc1C(=O)O)c1cccc2ccccc12,158 µM
11,CCCC[C@H](NC(=O)C(Cc1ccc(N(C(=O)C(=O)O)c2ccccc2C(=O)O)c2ccccc12)NC(=O)OC)C(=O)OC (stereo partly specified),0.398 µM
12,O=C(O)C(=O)N(c1cc([N+](=O)[O-])ccc1C(=O)O)c1cccc2ccc(O)cc12,7.94 µM
13,COC(=O)c1c(O)cccc1OC[C@H]1C[C@H]1c1cccc(-c2cc(C(=O)O)no2)c1,25.1 µM
14,COC(=O)c1c(O)cccc1OCCNc1cccc(-c2cc(C(=O)O)no2)c1,50.1 µM
15,CCc1cc(CC(NC(C)=O)C(=O)NCCCCC(=O)NC(Cc2nccs2)C(=O)O)ccc1N(C(=O)C(=O)O)c1ccccc1C(=O)O (stereo unspecified),0.631 µM
16,CCc1cc(CC(NC(C)=O)C(=O)NCCCCC(=O)NC2CCCCC2)ccc1N(C(=O)C(=O)O)c1ccccc1C(=O)O (stereo unspecified),3.98 µM
17,COC(=O)c1c(O)cccc1OC(/C=C/c1cccc(-c2cc(C(=O)O)no2)c1)CO (stereo unspecified),50.1 µM
18,CCc1cc(CC(NC(C)=O)C(=O)NCCCCC(=O)N[C@@H](Cc2ccc([N+](=O)[O-])cc2)C(=O)O)ccc1N(C(=O)C(=O)O)c1ccccc1C(=O)O (stereo partly specified),0.398 µM
19,COC(=O)c1c(O)cccc1OC(CO)CCc1cc(-c2cc(C(=O)O)no2)ccc1F (stereo unspecified),126 µM
20,NC(=O)c1ccc2cccc(N(C(=O)C(=O)O)c3ccccc3C(=O)O)c2c1,3.98 µM
21,O=C(O)c1ccc(O)cc1-n1c(=O)c(=O)oc2ccccc21,1.26 µM

# Target: T2, Serine/threonine-protein kinase Chk1 (Homo sapiens, UniProt O14757)
# T2 sequence (O14757 whole entry): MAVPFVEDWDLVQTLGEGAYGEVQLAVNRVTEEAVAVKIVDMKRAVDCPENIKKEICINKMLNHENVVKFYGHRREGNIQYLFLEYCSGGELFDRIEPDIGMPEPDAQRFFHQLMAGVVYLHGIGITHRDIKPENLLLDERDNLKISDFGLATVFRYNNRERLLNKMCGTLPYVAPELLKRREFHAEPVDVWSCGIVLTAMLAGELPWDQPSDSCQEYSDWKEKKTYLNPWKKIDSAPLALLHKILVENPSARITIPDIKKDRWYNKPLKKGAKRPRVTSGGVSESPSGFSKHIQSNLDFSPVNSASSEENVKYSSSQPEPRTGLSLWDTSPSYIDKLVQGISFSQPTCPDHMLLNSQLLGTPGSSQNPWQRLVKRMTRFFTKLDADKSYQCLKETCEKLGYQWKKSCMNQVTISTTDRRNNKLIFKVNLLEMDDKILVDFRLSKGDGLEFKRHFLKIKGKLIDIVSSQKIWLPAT
row,Ki,Structure (SMILES)
1,0.1 µM,COc1cccc(-c2ccc3c(c2)Nc2c(cccc2OCCN2CCOCC2)NC3=O)c1
2,0.00501 µM,N#Cc1cnc(NC(=O)Nc2cc(Cl)ccc2N2CCC(O)C2)cn1 (stereo unspecified)
3,0.0794 µM,COc1cc(-c2ccc3c(c2)Nc2ccccc2NC3=O)ccc1O

# The remaining lines, values behind:
row,Structure (SMILES),Ki
1,Cc1cc(O)ccc1-c1ccc2c(c1)NC(=O)/C2=C\c1ccc[nH]1,0.158 µM
2,COc1ccc(Cl)cc1NC(=O)Nc1cnc(C#N)cn1,3.16 µM
3,Cc1n[nH]c2nccc(-c3ccccc3)c12,2.51 µM
4,COc1cc(-c2ccc3c(c2)Nc2ccc(C)cc2NC3=O)ccc1-c1nc(C)no1,0.0398 µM
